{"source": "patent US20250382556A1", "about": "“MODULATION OF THE BRANCHED-CHAIN METABOLITE CONTENT OF FRUITS AND VEGETABLES” (BOARD OF TRUSTEES OF MICHIGAN STATE UNIVERSITY, priority 2024, published 2025)", "key": {"apple fruit peel": {"test_system": "apple fruit peel", "test": "Complementation of inhibitor-treated apple peel with branched-chain precursors", "set-up": "species or system Malus x domestica Borkh.", "experimental": "α-Ketoacids (2-oxo acids) were fed to ‘Empire’ and ‘Jonagold’ fruit by preparing vials of excised peel tissue discs in 22-mL glass vials using 20 μL of treatment solution on the prepared paper-peel disc units. Treatment solution contained 20 mM methanol, 0.1% Tween 20, 20 mM of α-keto-β-methylvalerate (3-methyl-2-oxopentanoate), α-ketoisovalerate (3-methyl-2-oxobutanoate), or α-ketoisocaproate (4-methyl-2-oxopentanoate), and when appropriate, 1 mM rimsulfuron.\n(§1) ‘Red Delicious’ apple fruit held in refrigerated air for 5 months (see above) plus 1 day at 22° C. and at an advanced ripeness stage (‘ripe’) were treated with rimsulfuron (1 mM) with 0.2% Tween 20 on day 0 of the study and for the next three consecutive days as above described. The fruit were evaluated daily for volatile emissions (see below) for eight days. On days 0, 2, 4, and 7, representative treated and untreated fruit were selected for tissue collection for metabolite analysis (see below). On day 7, samples of fruit peel were fed, as described above, with water or 20 mM isoleucine or α-keto-β-methylvalerate.\nHeadspace volatiles from small tissue samples incubated in 22 mL vials were adsorbed for 30 s using a solid-phase micro extraction (SPME) fiber (65 μm PDMS-DVB; Supelco Analytical). […]"}, "flowering quince fruit": {"test_system": "flowering quince fruit", "test": "Headspace volatile emissions of flowering quince fruit treated with AHAS inhibitor", "format": "in vivo, Chaenomeles x superba", "set-up": "key to butyl acetate emissions compared to control: —: Dash indicates no significant difference between treatments", "experimental": "Whole apple fruit, freshly harvested and at an early stage of ripening (‘ripening’), were held at room temperature (22° C.) and rubbed daily with 3 mL of a freshly made 1mM solution of the inhibitor rimsulfuron (N-((4,6-dimethoxypyrimidin-2-yl)aminocarbonyl)-3-(ethylsulfonyl)-2-pyridinesulfonamide, made from DuPont MATRIX® SG, 25% w/w active ingredient; 0.1% Tween 20) or water solution containing 0.1% Tween 20 before preparation with further treatments. Flowering quince fruit were smaller than the apple fruit and had 2 mL of the control and treatment solutions applied daily at 22° C. ‘Gala’, ‘Empire’, and ‘Jonagold’ apple fruit were treated for four, nine, and seven days before further preparation, respectively. Flowering quince fruit were treated for six days before analysis. Headspace volatile emissions were monitored for three or four representative fruits during the incubation/treatment period to determine appropriate times for further treatments. During method testing, 1 mM solutions of the imidazolinone imazamox was also assessed with apple fruit (2-[4,5-dihydro-4-methyl-4-(1-methylethyl)-5-oxo-1H-imidazol-2-yl]-5-(methoxymethyl)-3-pyridinecarboxylic acid, made from RAPTOR®, 12.1% w/w active ingredient; 0.1% Tween 20).\n(§2) Headspace volatiles from small tissue samples incubated in 22 mL vials were adsorbed for 30 s using a solid-phase micro extraction (SPME) fiber (65 μm PDMS-DVB; Supelco Analytical). The SPME fiber was then directly desorbed for 1 min in the injection port of a gas chromatograph (GC; HP-6890, Hewlett-Packard) coupled to a time-of-flight mass spectrometer (MS; Pegasus II, LECO). Whole fruits and banana slices were incubated for 20 min at room temperature (22° C.) in 1-L sealed Teflon jars before a 15-s, or 3-min adsorption and 1- or 2-min desorption. Adsorption times were adjusted to ensure instrument responses were in the linear range. All desorbed volatiles were cryofocused at the beginning of the column by immersing said region of the column in liquid nitrogen. After the desorption period, the run was initiated and the liquid nitrogen removed.\n(§3) The conditions of the system were as follows. Injection port: 200° C., splitless, ultra-purified helium (99.999%) carrier gas, front inlet flow 1.5 mL·min^−1 constant, 10 mL·min^−1 purge flow, 11.5 mL·min^−1 total flow. Oven: initial temperature 40° C. for 0 min, ramped by 43° C.·min^−1 to 185° C. for 0 min. Column: HP-5 MS, 30 m×0.25 mm i.d., 0.25 μm film thickness (Agilent). Transfer line temperature 225° C. MS: Electron ionization (−70 eV), ion source temperature 200° C., solvent delay 50 sec, m/z range 29 to 400, detector voltage 1500 V, data collection rate 20 Hz.\nCompounds were identified by comparison of the retention time and mass spectrum against authenticated reference standards and spectra (National Institute of Standards and Technology Mass Spectral Search Program Version 2.0, 2001). Volatiles were quantified by calibration with a standard of 59 authenticated, high-purity compounds (Sigma-Aldrich Co. and Fluka Chemical) including the target compounds. The standard was made by placing 0.5 μL of an equal-part mixture of the neat compounds onto a disc of filter paper before quickly placing the filter paper into a 4-L sealed flask fitted with a Mininert valve (for SPME fiber access, and allowed to vaporize for at least 6 hours. SPME adsorption and desorption times of the standard matched that of the samples quantified (e.g., 30-s adsorption, 1 min desorption when quantifying samples in 22-mL vials).\nStatistical analysis was performed using SciPy (v1.6.2), RStudio (v2023.03.0+386), or Microsoft Excel (v16.89). Against a specified value: one-tailed t-test Against two treatments: paired t-test for banana, two-sample t-test for apple and flowering quince. Against more than two treatments: Tukey's test following significant ANOVA. Analyses of branched-chain amino acids were one-tailed, all other metabolites were two-tailed. […]"}, "[1]": {"test_system": "ripe ‘Red Delicious’ apple fruit", "test": "Headspace 2-methylbutanoate esters of ripe apple fruit, time course", "format": "in vivo, Malus x domestica Borkh.", "conditions": "within three days of treatment", "experimental": "as §1\nHeadspace volatiles from small tissue samples incubated in 22 mL vials were adsorbed for 30 s using a solid-phase micro extraction (SPME) fiber (65 μm PDMS-DVB; Supelco Analytical). The SPME fiber was then directly desorbed for 1 min in the injection port of a gas chromatograph (GC; HP-6890, Hewlett-Packard) coupled to a time-of-flight mass spectrometer (MS; Pegasus II, LECO). […]\nCompounds were identified by comparison of the retention time and mass spectrum against authenticated reference standards and spectra (National Institute of Standards and Technology Mass Spectral Search Program Version 2.0, 2001). Volatiles were quantified by calibration with a standard of 59 authenticated, high-purity compounds (Sigma-Aldrich Co. and Fluka Chemical) including the target compounds. […]"}, "apple peel tissues": {"test_system": "apple peel tissues", "test": "Labeled (1,2-13C2) acetate and methanol feeding of excised apple peel", "set-up": "species or system Malus x domestica Borkh.", "conditions": "for reduction of methyl 2-methylbutanoate content: 1 mM rimsulfuron", "experimental": "Acetate feedings were likewise performed with excised peel tissues in 22-mL glass vials and 20 μL of treatment solution. ‘Gala’ fruit were fed with 10 mM methanol, 10 mM acetate (unlabeled or 1,2-^13C2) pH 7 balanced with KOH, 0.05% Tween 20, and 0.5 mM rimsulfuron if appropriate. These concentrations were doubled for ‘Empire’ and ‘Jonagold’ fruit.\nas §2, §3"}, "[2]": {"conditions": "Dr. Banks Pink flowering quince"}, "[3]": {"conditions": "Dr. Banks Pink flowering quince peel, 1 mM daily, six days"}}, "data": [{"smiles": "CCS(=O)(=O)c1cccnc1S(=O)(=O)NC(=O)Nc1nc(OC)cc(OC)n1", "note": "[rimsulfuron, N-((4,6-dimethoxypyrimidin-2-yl)aminocarbonyl)-3-(ethylsulfonyl)-2-pyridinesulfonamide]", "values": [{"measurement": "ester production after feeding isoleucine or α-keto-β-methylvalerate to inhibitor-treated peels", "setting": "apple fruit peel; ripe Red Delicious, 20 mM precursor on day 7", "value": "recovery of anteiso-branched-chain esters"}, {"measurement": "2-methylbutyl and 2-methylbutanoate esters after exogenous feeding of α-keto-β-methylvalerate to inhibitor-treated fruit", "setting": "apple fruit peel; ripening Jonagold and Empire, 20 mM α-ketoacid", "value": "at least a partial rescue"}, {"measurement": "butyl acetate, ethyl butanoate, estragole, or linalool versus untreated", "setting": "flowering quince fruit; [2]", "value": "No difference"}, {"measurement": "less 2-methylpropyl acetate and 2-methylbutyl acetate than untreated fruits", "setting": "flowering quince fruit; [2]", "value": 94.6, "unit": "%"}, {"measurement": "more propyl acetate than untreated fruits", "setting": "flowering quince fruit; [2]", "value": 22.7, "unit": "fold"}, {"measurement": "2-methylbutyl acetate (ile) emissions compared to control", "setting": "flowering quince fruit; [3]", "value": "5.2 ± 3.9", "unit": "%"}, {"measurement": "2-methylpropyl acetate (val) emissions compared to control", "setting": "flowering quince fruit; [3]", "value": "1.1 ± 1.4", "unit": "%"}, {"measurement": "butyl acetate emissions compared to control", "setting": "flowering quince fruit; [3]", "value": "—"}, {"measurement": "propyl acetate emissions compared to control", "setting": "flowering quince fruit; [3]", "value": "2265.0 ± 869.0", "unit": "%"}, {"measurement": "sum of anteiso- and iso-branched-chain esters emissions compared to control", "setting": "flowering quince fruit; [3]", "value": "3.0 ± 2.4", "unit": "%"}, {"measurement": "headspace content of 2-methylbutanoate esters, of control fruits", "setting": "[1]", "value": 15.0, "unit": "%"}, {"measurement": "M+1 and M+2 methyl pentanoate isotopologs collectively more enriched after treatment", "setting": "apple peel tissues; Empire and Jonagold, on average, 1,2-13C2 acetate", "value": 4.28, "unit": "fold"}, {"measurement": "reduction of methyl 2-methylbutanoate content", "setting": "apple peel tissues; Empire peel fed methanol and acetate", "value": 99.4, "unit": "%"}, {"measurement": "reduction of methyl 2-methylbutanoate content", "setting": "apple peel tissues; Jonagold peel fed methanol and acetate", "value": 100, "unit": "%"}, {"measurement": "enrichment of M+1 isotopolog of methyl hexanoate", "setting": "apple peel tissues; Jonagold, 1,2-13C2 acetate", "value": "slightly more enrichment than controls"}]}]}
